This is an account of results in patent publication US20230190697A1, “METHODS FOR TREATING VIRAL INFECTIONS WITH NAFAMOSTAT” (priority 2020, published 2023).

Where “and” joins values, the source holds several entries; their conditions need not be identical. Identical values can stand only once. Entries after “also recorded” stand apart in the source; their conditions may differ. Like-named read-outs stand apart in the source and are kept apart here. Where only a bound is given, the exact number is not on record here.

Series [1] can be described thus: Pharmacokinetics of nafamostat in male rats (whole blood, LC/MS/MS). It is filed as in vivo. The method, then: Example 1: Pharmacokinetic Studies. The pharmacokinetics of nafamostat were evaluated in male rats following an intravenous dose of 1 mg/kg or an oral dose of 9 mg/kg or 10 mg/kg. Nafamostat whole blood concentrations were determined by LC/MS/MS. Following intravenous dosing, nafamostat appeared in the blood of rats, with average (± SD) maximum whole blood concentrations (189 ± 54 ng/mL) being reached at the first measured time point (0.0830 hours) in all animals. […] The AUC0-t was 81.8 ± 29 ng̬·h/mL. The pharmacokinetic parameters were generated using a standard, non-compartmental model. Note that the half-life reported in this section is the terminal half-life and the alpha phase half-life is much shorter (estimated to be about 3 minutes).
After oral dosing, nafamostat appeared in the blood for the majority of the rats, with the whole blood concentrations being low and transient. The average (± SD) maximum plasma concentrations were 6.40 ± 6.2 ng/mL and 6.09 ± 3.6 ng/mL for the 9 mg/kg and 10 mg/kg doses, respectively, being reached between 0.250 hours and 0.500 hours. Due to the transient whole blood concentration-time profiles, the terminal t½ could not be calculated in the majority of the subjects but is approximated to be about 3 hours. The AUC0-t was 8.80 ng·h/mL (n=1) and 12.6 ± 11 ng·h/mL (n=3) for the two doses, respectively.

In series [2] the test system is healthy male and female subjects. The series is described as follows: Safety and tolerability (adverse events) of oral nafamostat mesylate in healthy subjects. It counts as in vivo, human. The method, then:
Part 1: Single Ascending Dose Study. Male and female subjects aged 18 - 70 were administered a single dose of 50 mg nafamostat mesylate on day 1, 100 mg nafamostat mesylate on day 3 or 4, and 200 mg nafamostat mesylate on day 5, 6, or 7. Nafamostat mesylate was administered in the form of an oral solution. Blood samples were obtained at pre-dose (0 hr.) and at 0.5, 1, 2, 3, 4, 6, 8, 12, and 24 hours after receiving the nafamostat mesylate oral solution.
Part 2: Multiple Ascending Dose Study. Subjects were divided into 2 cohorts. Cohort 1 received an oral solution of 100 mg/mL nafamostat mesylate twice a day for 5 days with pharmacokinetic evaluations on each day. Blood samples were obtained at pre-dose (0 hr.) and at 0.5, 1, 2, 3, 4, 6, 8, 12, and 24 hours after receiving the nafamostat mesylate oral solution as well as after the first dose on Day 5. Safety evaluations continued for 48 hours after the last dose. After review and evidence of safety, Cohort 2 received an oral solution of 200 mg/mL nafamostat mesylate twice a day for 5 days with pharmacokinetic evaluations on each day. Blood samples were obtained at pre-dose (0 hr.) and at 0.5, 1, 2, 3, 4, 6, 8, 12, and 24 hours after receiving the first dose of nafamostat mesylate oral solution as well as after the first dose on Day 5. Safety evaluations continued for 48 hours after the last dose.
Part 3: Single Fixed Dose Administered Twice Daily for 5 Days. Six subjects, different than the subjects from Parts 1 and 2, received an oral solution of 200 mg/mL nafamostat mesylate twice a day for 5 days. Blood samples were obtained at pre-dose (0 hr.) and at 0.5, 1, 2, 3, 4, 6, and 8 hours after the first dose on Day 1 and again after the first dose on Day 5.
Part 4: Single Ascending Dose Study. Three subjects were administered a single dose of an oral solution of 400 mg/mL nafamostat mesylate. After review and evidence of safety, a second set of three subjects received a single dose of an oral solution of 600 mg/mL nafamostat mesylate. Blood samples were obtained for pharmacokinetic analysis at pre-dose (0 hr.) and at 0.25, 0.5, 0.75, 1, 1.5, 2, 2.5, 3, 4, 6, and 8 hours after receiving the nafamostat mesylate dose.
Evaluations of subjects included incidence and severity of adverse events (AEs), vital signs (pulse rate, blood pressure, respiratory rate), 12-lead electrocardiogram, electrocardiogram telemetry or MCOT cardiac patch, continuous pulse oximetry, clinical laboratory tests (CBC-diff, complete metabolic panel including LFTs, PT, PTT), physical examination.

For series [3], the system named is S. typhimurium strains TA98, TA100, TA1535, and TA97a and Escherichia coli strain WP2uvrA76. The series is described as follows: Bacterial Reverse Mutation (Ames) Screening Assay. It is filed as cell-based. The note with it: with or without S9, up to 25 mg/mL. The method, then:
Bacterial Reverse Mutation (Ames) Screening Assay: This in vitro non-GLP study evaluated the cytotoxic and mutagenic activity of nafamostat in S. typhimurium strains TA98, TA100, TA1535, and TA97a and in the Escherichia coli (E. coli) strain WP2uvrA76. Two independent assays were conducted using the plate incorporation method with and without S9 metabolic activation. The highest concentration tested was 25 mg/mL. The vehicle control, sterile saline, was tested under the same conditions.

Series [4] can be described thus: Pharmacokinetics of oral nafamostat mesylate solution in healthy male and female subjects. It counts as in vivo, human. The method, then:
Part 1: Single Ascending Dose Study. Male and female subjects aged 18 - 70 were administered a single dose of 50 mg nafamostat mesylate on day 1, 100 mg nafamostat mesylate on day 3 or 4, and 200 mg nafamostat mesylate on day 5, 6, or 7. Nafamostat mesylate was administered in the form of an oral solution. […]
Part 2: Multiple Ascending Dose Study. Subjects were divided into 2 cohorts. Cohort 1 received an oral solution of 100 mg/mL nafamostat mesylate twice a day for 5 days with pharmacokinetic evaluations on each day. […] Safety evaluations continued for 48 hours after the last dose. After review and evidence of safety, Cohort 2 received an oral solution of 200 mg/mL nafamostat mesylate twice a day for 5 days with pharmacokinetic evaluations on each day. […] Safety evaluations continued for 48 hours after the last dose.
Part 3: Single Fixed Dose Administered Twice Daily for 5 Days. Six subjects, different than the subjects from Parts 1 and 2, received an oral solution of 200 mg/mL nafamostat mesylate twice a day for 5 days. Blood samples were obtained at pre-dose (0 hr.) and at 0.5, 1, 2, 3, 4, 6, and 8 hours after the first dose on Day 1 and again after the first dose on Day 5. […]
Oral solutions received by each subject were prepared by dissolving nafamostat mesylate in about 100 mL of EMETROL®/water and provided at a volume to deliver the indicated dosage. There was no placebo formulation.
Nafamostat pharmacokinetics was evaluated at the 200 mg dose levels.

A further series has as its target hERG K+ channel (Homo sapiens, UniProt Q12809). The series is described as follows: cell-based. The method, then:
Effects of nafamostat in an hERG assay: In an in vitro non-GLP screening study, effects of nafamostat on the hERG K^+ channel currents were evaluated in voltage-clamped human embryonic kidney cells at room temperature. […] A full ICH-Compliant hERG study and in vivo cardiovascular safety pharmacology study is be performed as part of the IND-enabling program.

Setting [5] is: human, oral, 200 mg dose levels.

Chain of hERG K+ channel (Q12809 whole entry): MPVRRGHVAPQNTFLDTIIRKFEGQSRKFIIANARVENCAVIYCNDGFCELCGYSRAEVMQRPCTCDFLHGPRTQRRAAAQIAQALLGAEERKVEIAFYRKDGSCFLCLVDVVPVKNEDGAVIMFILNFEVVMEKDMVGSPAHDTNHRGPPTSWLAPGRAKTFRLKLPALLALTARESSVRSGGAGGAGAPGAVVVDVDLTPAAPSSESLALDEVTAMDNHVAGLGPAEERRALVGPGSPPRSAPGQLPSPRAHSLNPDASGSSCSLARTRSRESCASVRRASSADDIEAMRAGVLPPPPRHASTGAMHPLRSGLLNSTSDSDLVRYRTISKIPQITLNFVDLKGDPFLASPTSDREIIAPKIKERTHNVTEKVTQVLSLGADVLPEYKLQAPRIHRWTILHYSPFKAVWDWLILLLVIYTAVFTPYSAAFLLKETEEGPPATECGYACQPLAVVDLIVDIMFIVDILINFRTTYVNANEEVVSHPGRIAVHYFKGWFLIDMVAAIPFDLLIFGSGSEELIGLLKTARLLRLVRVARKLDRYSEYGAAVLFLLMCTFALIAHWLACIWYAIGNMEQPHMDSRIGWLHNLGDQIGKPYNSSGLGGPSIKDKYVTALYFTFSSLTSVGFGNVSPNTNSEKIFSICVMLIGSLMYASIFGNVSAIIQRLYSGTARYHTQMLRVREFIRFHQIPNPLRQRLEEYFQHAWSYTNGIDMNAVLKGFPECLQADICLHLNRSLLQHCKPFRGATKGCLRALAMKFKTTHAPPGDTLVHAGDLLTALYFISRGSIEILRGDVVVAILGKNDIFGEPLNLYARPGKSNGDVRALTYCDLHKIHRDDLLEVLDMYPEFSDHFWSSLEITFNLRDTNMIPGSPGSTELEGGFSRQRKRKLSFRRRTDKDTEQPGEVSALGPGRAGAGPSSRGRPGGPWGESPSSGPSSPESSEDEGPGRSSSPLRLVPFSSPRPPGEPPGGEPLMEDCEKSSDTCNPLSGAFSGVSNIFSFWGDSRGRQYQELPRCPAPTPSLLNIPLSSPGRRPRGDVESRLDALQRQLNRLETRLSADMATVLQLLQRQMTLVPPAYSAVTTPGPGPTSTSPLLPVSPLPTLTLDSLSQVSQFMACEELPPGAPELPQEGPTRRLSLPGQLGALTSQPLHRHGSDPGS

As a reminder, the bioavailability is dose-corrected exposure relative to a reference, in per cent. By AUC(0-t) is commonly meant exposure summed from dosing to a finite time, without extrapolation to infinity. High values mean high exposure, low ones low exposure. In general, IC50 refers to the midpoint of a concentration-inhibition curve. High values mean lower potency, low ones higher potency. Consider `N=C(N)c1ccc2cc(OC(=O)c3ccc(N=C(N)N)cc3)ccc2c1` [nafamostat], for which, in series [1] (male rats, intravenous 1 mg/kg), the “average (± SD) maximum whole blood concentration” value came out at 189 ± 54 ng/mL. Further, the clearance entry in series [1] (male rats, intravenous 1 mg/kg) was “high and greater than hepatic blood flow in rats”. The “time of maximum whole blood concentration (first measured time point)” value in series [1] (male rats, intravenous 1 mg/kg) was 0.0830 h. The “average (± SD) maximum plasma concentration” value in series [1] (male rats, oral 9 mg/kg) is given as 6.40 ± 6.2 ng/mL; in series [1] (male rats, oral 10 mg/kg), 6.09 ± 3.6 ng/mL. Further, the half-life in series [1] (male, rat, whole blood, iv, 1 mg/kg, male rats, intravenous 1 mg/kg, estimated, read-out: alpha phase half-life) is approximately 0.05 h; in series [1] (male, rat, whole blood, iv, 1 mg/kg, male rats, intravenous 1 mg/kg, non-compartmental, read-out: terminal t½ (converted)), 1.84 ± 1.3 h; in series [1] (male, rat, whole blood, po, male rats, oral dosing, approximated, read-out: terminal t½ (converted)) it was approximately 3 h. Moreover, the bioavailability in series [1] (male, rat, whole blood, rats, oral vs intravenous, read-out: overall absolute oral bioavailability) is 1.16 ± 1.1%. Also, the AUC(0-t) in series [1] (rat, whole blood, male rats, intravenous 1 mg/kg) amounted to 81.8 ± 29 ng·h/mL; in series [1] (rat, whole blood, male rats, oral 9 mg/kg (n=1)) it was 8.8 ng·h/mL; in series [1] (rat, whole blood, male rats, oral 10 mg/kg (n=3)) it was 12.6 ± 11 ng·h/mL. The “adverse events attributable to nafamostat” value in series [2] (human subjects, oral solution) is “no adverse events that could be attributed to nafamostat reported”. Moreover, the adverse events result in series [2] (oral, up to 600 mg nafamostat mesylate) is reported as “no adverse events are observed”. In addition, the “Drug-Related?” value in series [2] (per subject (12-17), adverse event) was “No”. Moreover, the “Adverse Event” value in series [2] (per subject (12-17), oral nafamostat mesylate solution) is listed as “Intermittent headache; also recorded: Thrush; also recorded: Tonsillitis right; also recorded: Right thigh redness, swelling; also recorded: Nausea; also recorded: Orthostatic tachycardia* *; also recorded: Chest pain (mild, intermittent)”. For the same molecule, the Severity entry in series [2] (per subject (12-17), severity of adverse event) is “Mild (4×) and Moderate (3×)”. Besides, the “mutagenic activity (mean number of revertants per plate)” value in series [3] (any test strain) is listed as “no positive increases in the mean number of revertants”. In addition, the cytotoxic activity result in series [3] (plate incorporation) is on record as “not cytotoxic”. Besides, the “PK measurements (nafamostat concentration), all except three samples, below LLQ” value in series [4] (setting [5]) was less than 0.1 ng/mL. The “nafamostat found in the two outlier samples taken after at least one daily dose” value in series [4] (setting [5]) was 0.125 ng/mL and 0.101 ng/mL. Besides, the “nafamostat detected in blood samples” value in series [4] (oral administration) is listed as “No nafamostat was detected in blood samples”. The “therapeutically-relevant blood plasma levels” value in series [4] (subjects administered oral nafamostat) is on record as “Therapeutically-relevant blood plasma levels were not observed”. Besides, on hERG K+ channel, the IC50 was more than 50 µM.
